These results are taken from patent publication US20230072683A1, “PYRIDO-PYRIMIDIN DERIVATIVES AND PHARMACEUTICAL COMPOSITION, FOR USE IN PREVENTING OR TREATING PI3 KINASE RELATED DISEASES, COMPRISING SAME AS ACTIVE INGREDIENT” (BORYUNG PHARMACEUTICAL CO., LTD, priority 2019, published 2023).

Assay [1] has as its target PI3K-δ (PI3K(p1108/p857) (h)) (Homo sapiens, UniProt O00329). Nature of the assay: Evaluation of inhibitory activity against PI3K-δ (HTRF kinase assay). The settings on record: compound concentration 0.01 μM; read-out: EXP_VALUE(% Inhibition) PI3K-δ 0.01 μM. Type of assay: biochemical. On the procedure:
<Experimental Example 1> Evaluation of Inhibitory Activity Properties Against PI3K-δ
The following experiments were performed to verify the inhibitory activity against PI3K-δ with regard to each of the compounds of Examples 1 to 441 according to the present invention.
PI3K(p1108/p857) (h) was incubated in assay buffer comprising 10 μM phosphatidylinositol-4,5-bisphosphate and Mg/ATP (at a concentration as required). The reaction was initiated by the addition of a Mg/ATP mixture, and after incubation for 30 minutes at room temperature, a stop solution comprising EDTA and phosphatidylinositol-3,4,5-triphosphate was added to stop the reaction and carry out biotinylation.
A detection buffer comprising Eu (europium)-labelled anti-GST monoclonal antibody, GST-tagged GRP1 PH domain and streptavidin-allophycocyanin was added. A plate was read in a time-resolved fluorescence mode and a homogeneous time-resolved fluorescence (HTRF) signal was determined according to HTRF=10000×(Em 665 nm/Em 620 nm).

The next assay concerns the target DNA-PK(h) (Homo sapiens, UniProt P78527). Put plainly: Evaluation of inhibitory activity against DNA-PK (HTRF kinase assay, GST-cMyc-p53 substrate). The assay is classed as biochemical. The settings on record: compound concentration 0.01 μM; read-out: EXP_VALUE(% Inhibition) DNA-PK(h) 0.01 μM. On the procedure:
<Experimental Example 2> Evaluation of Inhibitory Activity Properties Against DNA-PK
The following experiments were performed to verify the inhibitory activity against DNA-PK with regard to each of the compounds of Examples 1 to 441 according to the present invention.
DNA-PK(h) was subjected to an isothermal treatment in an assay buffer comprising […] GST-cMyc-p53 and Mg/ATP (at a concentration as required). The reaction was initiated by the addition of a Mg/ATP mixture, and after incubation for 30 minutes at room temperature, a stop solution comprising EDTA was added to stop the reaction. A detection buffer comprising d2-labelled anti-GST monoclonal antibody and Europium-labelled anti-phospho Ser15 antibody for phosphorylated p53 was added. A plate was read in a time-resolved fluorescence mode and a homogeneous time-resolved fluorescence (HTRF) signal was determined according to HTRF=10000×(Em 665 nm/Em 620 nm).

Each structure is given as a SMILES string.

PI3K-δ (PI3K(p1108/p857) (h)), sequence (O00329 whole entry): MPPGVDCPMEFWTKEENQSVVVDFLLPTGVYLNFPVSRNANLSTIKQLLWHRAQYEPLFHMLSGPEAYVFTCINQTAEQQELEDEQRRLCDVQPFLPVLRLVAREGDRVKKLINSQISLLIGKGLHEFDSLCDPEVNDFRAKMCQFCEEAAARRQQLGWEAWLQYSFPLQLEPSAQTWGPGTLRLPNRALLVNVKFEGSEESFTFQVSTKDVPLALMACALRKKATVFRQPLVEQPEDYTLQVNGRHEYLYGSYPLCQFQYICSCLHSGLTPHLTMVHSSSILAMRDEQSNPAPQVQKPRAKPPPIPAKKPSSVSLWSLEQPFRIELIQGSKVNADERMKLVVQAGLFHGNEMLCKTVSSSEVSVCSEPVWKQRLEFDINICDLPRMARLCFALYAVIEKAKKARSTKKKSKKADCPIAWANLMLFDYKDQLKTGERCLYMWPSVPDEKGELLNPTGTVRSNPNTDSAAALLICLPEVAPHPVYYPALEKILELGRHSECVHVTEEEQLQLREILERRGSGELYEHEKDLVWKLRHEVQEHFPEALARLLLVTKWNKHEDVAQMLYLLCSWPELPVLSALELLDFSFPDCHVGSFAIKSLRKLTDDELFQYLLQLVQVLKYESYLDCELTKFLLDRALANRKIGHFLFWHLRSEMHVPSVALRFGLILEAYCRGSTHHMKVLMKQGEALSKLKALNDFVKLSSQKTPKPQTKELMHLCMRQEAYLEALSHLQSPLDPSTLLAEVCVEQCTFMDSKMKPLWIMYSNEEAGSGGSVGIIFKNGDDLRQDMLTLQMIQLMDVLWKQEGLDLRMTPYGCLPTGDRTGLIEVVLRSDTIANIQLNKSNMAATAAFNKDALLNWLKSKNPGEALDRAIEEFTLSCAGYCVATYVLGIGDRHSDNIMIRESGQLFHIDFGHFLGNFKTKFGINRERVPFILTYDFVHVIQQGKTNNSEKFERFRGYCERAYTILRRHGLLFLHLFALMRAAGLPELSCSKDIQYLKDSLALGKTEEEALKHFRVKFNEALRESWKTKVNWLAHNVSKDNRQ
PI3K-δ (PI3K(p1108/p857) (h)), sequence (P27986 whole entry partner): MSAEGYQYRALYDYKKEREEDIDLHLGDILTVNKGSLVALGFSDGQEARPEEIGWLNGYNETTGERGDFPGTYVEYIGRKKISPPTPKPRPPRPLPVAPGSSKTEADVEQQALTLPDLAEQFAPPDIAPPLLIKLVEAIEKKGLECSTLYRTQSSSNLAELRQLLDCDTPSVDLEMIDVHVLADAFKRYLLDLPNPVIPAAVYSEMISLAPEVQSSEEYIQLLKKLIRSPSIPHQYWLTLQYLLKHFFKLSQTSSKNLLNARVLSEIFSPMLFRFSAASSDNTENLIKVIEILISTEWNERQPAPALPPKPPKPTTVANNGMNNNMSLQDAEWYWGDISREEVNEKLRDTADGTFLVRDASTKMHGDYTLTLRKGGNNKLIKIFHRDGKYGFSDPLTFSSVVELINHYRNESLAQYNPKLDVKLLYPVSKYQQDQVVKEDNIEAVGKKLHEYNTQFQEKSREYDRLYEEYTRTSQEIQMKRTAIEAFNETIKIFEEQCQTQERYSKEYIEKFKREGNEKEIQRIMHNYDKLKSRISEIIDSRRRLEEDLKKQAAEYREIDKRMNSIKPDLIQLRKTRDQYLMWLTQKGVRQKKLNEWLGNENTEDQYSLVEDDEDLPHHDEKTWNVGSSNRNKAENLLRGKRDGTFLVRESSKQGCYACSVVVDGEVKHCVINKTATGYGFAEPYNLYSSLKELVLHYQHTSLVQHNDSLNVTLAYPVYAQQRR

A word on the inhibition: it is the drop in the measured response relative to a control, in per cent. For the compound `C[C@H](Nc1ncnc2[nH]ccc(=O)c12)c1c(Cl)c2cccc(-c3ccc(C(C)(C)C)nc3)c2c(=O)n1-c1ccccc1` [Example 34, (S)-4-((1-(8-(6-(tert-butyl)pyridin-3-yl)-4-chloro-1-oxo-2-phenyl-1,2-dihydroisoquinolin-3-yl)ethyl)amino)pyrido[2,3-d]pyrimidin-5(8H)-one], the inhibition at 0.01 µM in assay [1] amounted to 74%; at DNA-PK(h), 56%.

Turning to `C[C@H](Nc1ncnc2[nH]ccc(=O)c12)c1c(Cl)c2cccc(-c3ncccn3)c2c(=O)n1-c1ccccc1` [Example 35, (S)-4-((1-(4-chloro-1-oxo-2-phenyl-8-(pyrimidin-2-yl)-1,2-dihydroisoquinolin-3-yl)ethyl)amino)pyrido[2,3-d]pyrimidin-5(8H)-one], the inhibition at 0.01 µM came out at 21% in assay [1] and 7% on DNA-PK(h).

`C[C@H](Nc1ncnc2[nH]ccc(=O)c12)c1c(Cl)c2cccc(-c3cc(O)c(O)c(F)c3)c2c(=O)n1-c1ccccc1` [Example 36, (S)-4-((1-(4-chloro-8-(3-fluoro-4,5-dihydroxyphenyl)-1-oxo-2-phenyl-1,2-dihydroisoquinolin-3-yl)ethyl)amino)pyrido[2,3-d]pyrimidin-5(8H)-one]: the inhibition at 0.01 µM was 74% in assay [1] and 34% at DNA-PK(h).

As to `C[C@H](Nc1ncnc2[nH]ccc(=O)c12)c1c(Cl)c2cccc(-c3ccc4nncn4c3)c2c(=O)n1-c1ccccc1` [Example 37, (S)-4-((1-(8-([1,2,4]triazolo[4,3-a]pyridin-6-yl)-4-chloro-1-oxo-2-phenyl-1,2-dihydroisoquinolin-3-yl)ethyl)amino)pyrido[2,3-d]pyrimidin-5(8H)-one], the inhibition at 0.01 µM was 89% in assay [1] and 60% on DNA-PK(h).

Consider `C[C@H](Nc1ncnc2[nH]ccc(=O)c12)c1c(Cl)c2ccccc2c(=O)n1-c1ccccc1` [Example 38, (S)-4-((1-(4-chloro-1-oxo-2-phenyl-1,2-dihydroisoquinolin-3-yl)ethyl)amino)pyrido[2,3-d]pyrimidin-5(8H)-one], for which the inhibition at 0.01 µM in assay [1] was found to be 71%; on DNA-PK(h) it was 46%.

For the compound `C[C@H](Nc1ncnc2[nH]ccc(=O)c12)c1c(Cl)c2cccc(-c3cnc(CC#N)nc3)c2c(=O)n1-c1ccccc1` [Example 39, (S)-2-(5-(4-chloro-1-oxo-3-(1-((5-oxo-5,8-dihydropyrido[2,3-d]pyrimidin-4-yl)amino)ethyl)-2-phenyl-1,2-dihydroisoquinolin-8-yl)pyrimidin-2-yl)acetonitrile], the inhibition at 0.01 µM in assay [1] was found to be 47%; at DNA-PK(h), 57%.

As to `C[C@H](Nc1ncnc2[nH]ccc(=O)c12)c1c(Cl)c2cccc(-c3cnc4nncn4c3)c2c(=O)n1-c1ccccc1` [Example 40, (S)-4-((1-(8-([1,2,4]triazolo[4,3-a]pyrimidin-6-yl)-4-chloro-1-oxo-2-phenyl-1,2-dihydroisoquinolin-3-yl)ethyl)amino)pyrido[2,3-d]pyrimidin-5(8H)-one], the inhibition at 0.01 µM stood at 67% in assay [1] and 61% at DNA-PK(h).

With `COc1ccc(-c2cccc3c(Cl)c([C@H](C)Nc4ncnc5[nH]ccc(=O)c45)n(-c4ccccc4)c(=O)c23)nc1` [Example 41, (S)-4-((1-(4-chloro-8-(5-methoxypyridin-2-yl)-1-oxo-2-phenyl-1,2-dihydroisoquinolin-3-yl)ethyl)amino)pyrido[2,3-d]pyrimidin-5(8H)-one], the inhibition at 0.01 µM was found to be 89% in assay [1] and 79% on DNA-PK(h).

Take `C[C@H](Nc1ncnc2[nH]ccc(=O)c12)c1c(Cl)c2cccc(-c3ccc4ncnn4c3)c2c(=O)n1-c1ccccc1` [Example 42, (S)-4-((1-(8-([1,2,4]triazolo[1,5-a]pyridin-6-yl)-4-chloro-1-oxo-2-phenyl-1,2-dihydroisoquinolin-3-yl)ethyl)amino)pyrido[2,3-d]pyrimidin-5(8H)-one]: the inhibition at 0.01 µM in assay [1] was determined as 89%; at DNA-PK(h), 76%.

Consider `COc1cnc(-n2ccc(=O)c3c(N[C@@H](C)c4c(Cl)c5ccccc5c(=O)n4-c4ccccc4)ncnc32)nc1` [Example 43, (S)-4-((1-(4-chloro-1-oxo-2-phenyl-1,2-dihydroisoquinolin-3-yl)ethyl)amino)-8-(5-methoxypyrimidin-2-yl)pyrido[2,3-d]pyrimidin-5(8H)-one], for which the inhibition at 0.01 µM turned out to be 9% in assay [1] and 3% on DNA-PK(h).

Take `C[C@H](Nc1ncnc2[nH]ccc(=O)c12)c1c(Cl)c2cccc(-c3cnc(C#N)nc3)c2c(=O)n1-c1ccccc1` [Example 44, (S)-5-(4-chloro-1-oxo-3-(1-((5-oxo-5,8-dihydropyrido[2,3-d]pyrimidin-4-yl)amino)ethyl)-2-phenyl-1,2-dihydroisoquinolin-8-yl)pyrimidine-2-carbonitrile]: the inhibition at 0.01 µM was 79% in assay [1] and 43% at DNA-PK(h).

Take `COc1cc(-c2cccc3c(Cl)c([C@H](C)Nc4ncnc5[nH]ccc(=O)c45)n(-c4ccccc4)c(=O)c23)ncn1` [Example 45, (S)-4-((1-(4-chloro-8-(6-methoxypyrimidin-4-yl)-1-oxo-2-phenyl-1,2-dihydroisoquinolin-3-yl)ethyl)amino)pyrido[2,3-d]pyrimidin-5(8H)-one]: the figures for the inhibition at 0.01 µM (in assay [1]; at DNA-PK(h)) were 10% and 2%, respectively.

Regarding `C[C@H](Nc1ncnc2[nH]ccc(=O)c12)c1c(Cl)c2cccc(-c3ccc(C4CC4)nc3)c2c(=O)n1-c1ccccc1` [Example 46, (S)-4-((1-(4-chloro-8-(6-cyclopropylpyridin-3-yl)-1-oxo-2-phenyl-1,2-dihydroisoquinolin-3-yl)ethyl)amino)pyrido[2,3-d]pyrimidin-5(8H)-one], the figures for the inhibition at 0.01 µM (in assay [1]; on DNA-PK(h)) were 42% and 27%, respectively.

`C[C@H](Nc1ncnc2[nH]ccc(=O)c12)c1c(Cl)c2cccc(-c3ccc(C(=O)O)nc3)c2c(=O)n1-c1ccccc1` [Example 47, (S)-5-(4-chloro-1-oxo-3-(1-((5-oxo-5,8-dihydropyrido[2,3-d]pyrimidin-4-yl)amino)ethyl)-2-phenyl-1,2-dihydroisoquinolin-8-yl)picolinic acid]: the inhibition at 0.01 µM in assay [1] stood at 86%; on DNA-PK(h), 48%.

In the case of `C[C@H](Nc1ncnc2[nH]ccc(=O)c12)c1c(Cl)c2cccc(-c3cnc4ccccc4n3)c2c(=O)n1-c1ccccc1` [Example 48, (S)-4-((1-(4-chloro-1-oxo-2-phenyl-8-(quinoxalin-2-yl)-1,2-dihydroisoquinolin-3-yl)ethyl)amino)pyrido[2,3-d]pyrimidin-5(8H)-one], the inhibition at 0.01 µM in assay [1] was 7%; at DNA-PK(h), -5%.

`COc1cc(-c2cccc3c(Cl)c([C@H](C)Nc4ncnc5[nH]ccc(=O)c45)n(-c4ccccc4)c(=O)c23)nc(OC)n1` [Example 49, (S)-4-((1-(4-chloro-8-(2,6-dimethoxypyrimidin-4-yl)-1-oxo-2-phenyl-1,2-dihydroisoquinolin-3-yl)ethyl)amino)pyrido[2,3-d]pyrimidin-5(8H)-one]: the results for the inhibition at 0.01 µM (in assay [1]; on DNA-PK(h)) were 23% and -3%, respectively.

Turning to `C[C@H](Nc1ncnc2[nH]ccc(=O)c12)c1c(Cl)c2cccc(-c3cc(O)ncn3)c2c(=O)n1-c1ccccc1` [Example 50, (S)-4-((1-(4-chloro-8-(6-hydroxypyrimidin-4-yl)-1-oxo-2-phenyl-1,2-dihydroisoquinolin-3-yl)ethyl)amino)pyrido[2,3-d]pyrimidin-5(8H)-one], the inhibition at 0.01 µM in assay [1] turned out to be 96%; at DNA-PK(h) it was 53%.
